Values joined by “and” are separate entries in the source; they are usually repeats but may differ in a detail not shown here. Identical values can stand only once.
Tested on: human erythrocytes
Assay: Untargeted metabolomics and 13C-glucose tracing of enolase inhibitor treated erythrocytes
Assay type: cell-based
Settings: 6h
Description: Freshly collected erythrocytes were washed, resuspended to 10% hematocrit in buffer [25mM HEPES (pH 7.4), 120mM NaCl, 5.4mM KCl, 1.8mM CaCl2, and 1mM NaH2PO4], incubated for 1 hour at 37°C, then centrifuged at 2000xg for 5 minutes at 4°C, resuspended in fresh wash buffer to 30-40% hematocrit, and split into 210µL aliquots of packed erythrocytes. […] All samples were incubated at 37°C shaking at 500 RPM. Triplicate samples of supernatants and packed erythrocytes were collected at 0, 0.5, 1, and 6-hour intervals and snap-frozen in liquid N2.
RBC and media samples were extracted at 1:10 and 1:20 dilutions, respectively, in 5:3:2 MeOH : MeCN:H2O v/v/v, and supernatants analyzed on a Thermo Vanquish UHPLC coupled to a Thermo Q Exactive mass spectrometer, as extensively described ([Nemkov et al., 2015]; [Nemkov et al., 2017]). The extraction buffer was supplemented with 40uM 3-^13C lactate to allow absolute quantification of lactate isotopologues, including lactate generated via glycolysis ([1,2,3-^13C3] enriched) vs. the pentose phosphate pathway ([2,3-^13C2] enriched), as described ([Reisz et al., 2016]). Metabolite assignments, peak area integration and isotopologues distributions were determined using Maven (Princeton University) ([Nemkov et al., 2015]; [Nemkov et al., 2017]).
Data were auto-scaled and normalized to zero-hour time points. Metabolites were removed from the dataset if greater than 50% of the samples contained missing values or the relative standard deviation among replicates exceeded 25%. Additionally, data was filtered using the interquartile range to reduce near-constant values from the experiment by 5%.
A principal component analysis of preprocessed data was plotted with the 95% confidence interval minimum volume enclosing ellipsoid for each respective group (MetaboAnalyst, cluster, plotly). A two-way repeated measures analysis of variance (ANOVA) was performed with multiple comparisons corrected for using a false discovery rate p-value cutoff of 0.05. Metabolite-Pathway analysis was performed using the R package of MetaboAnalyst, as previously described ([Xia and Wishart, 2010]). Metabolite-Protein nodal analysis was performed using omicsnet.ca and as previously described ([Zhou and Xia, 2018]).

[1] = treated erythrocytes, one value per replicate sample, polarity +
[2] = treated erythrocytes, one value per replicate sample, polarity -
[3] = treated erythrocytes, replicate samples

## CC(C)(C)C(=O)OCOP(=O)(OCOC(=O)C(C)(C)C)C1CC(O)N(O)C1=O (stereo not shown) [POMSF]
Replicate samples
  AMP level (metabolomics signal): 5.02E+05 and 4.09E+05 and 5.85E+05
  ATP level (metabolomics signal): 1.58E+04 and 9.84E+04 and 9.63E+04
  Adenine level (metabolomics signal): 7.75E+04 and 1.23E+05 and 1.12E+05
  Cytosine level (metabolomics signal): 8.05E+04 and 4.16E+04 and 5.19E+04
  L-alanine level (metabolomics signal): 8.35E+06 and 9.19E+06 and 8.31E+06
  L-arginine level (metabolomics signal): 2.95E+06 and 0.00E+00 and 2.67E+06
  L-asparagine level (metabolomics signal): 5.77E+06 and 5.60E+06 and 5.22E+06
  L-aspartate level (metabolomics signal): 1.31E+07 and 1.25E+07 and 1.18E+07
  L-cysteine level (metabolomics signal): 3.97E+05 and 1.14E+05 and 2.20E+05
  L-glutamate level (metabolomics signal): 7.50E+06 and 6.15E+06 and 6.74E+06
  L-glutamine level (metabolomics signal): 6.26E+07 and 5.76E+07 and 5.48E+07
  L-histidine level (metabolomics signal): 1.46E+06 and 1.38E+06 and 1.44E+06
  L-isoleucine level (metabolomics signal): 1.17E+07 and 1.31E+07 and 1.49E+07
  L-leucine level (metabolomics signal): 1.27E+08 and 1.58E+08 and 2.15E+08
  L-lysine level (metabolomics signal): 1.43E+06 and 1.33E+06 and 1.52E+06
  L-methionine level (metabolomics signal): 1.27E+07 and 1.48E+07 and 1.83E+07
  L-phenylalanine level (metabolomics signal): 6.89E+06 and 7.47E+06 and 8.39E+06
  L-proline level (metabolomics signal): 7.25E+07 and 6.63E+07 and 6.78E+07
  L-serine level (metabolomics signal): 4.64E+06 and 4.68E+06 and 4.28E+06
  L-threonine level (metabolomics signal): 6.95E+06 and 7.99E+06 and 7.08E+06
  L-tryptophan level (metabolomics signal): 1.43E+06 and 1.21E+06 and 1.71E+06
  L-tyrosine level (metabolomics signal): 1.74E+07 and 2.17E+07 and 2.50E+07
  L-valine level (metabolomics signal): 1.73E+08 (2×) and 1.89E+08
  dCMP level (metabolomics signal): 0.00E+00 and 1.19E+04 and 1.51E+04
  dTMP level (metabolomics signal): 2.61E+04 and 1.28E+06 and 7.09E+05
  glycine level (metabolomics signal): 1.74E+06 and 1.71E+06 and 1.54E+06
[1]
  N-Acyl-D-aspartate (C06380) metabolite signal: 6.19E+04 and 7.22E+04 and 7.18E+04
  Poly-gamma-D-glutamate (C05723) metabolite signal: 4.28E+07 and 3.89E+07 and 3.91E+07
[2]
  D-Ribitol 5-phosphate (C01068) metabolite signal: 0.00E+00 and 1.62E+04 and 1.65E+04
  D-glucono-1,5-lactone (C00198) metabolite signal: 1.21E+04 and 2.10E+05 and 2.85E+05
  L-Noradrenaline (C00547) metabolite signal: 1.67E+04 and 1.81E+04 and 3.13E+04
  Oxalosuccinate (C05379) metabolite signal: 3.74E+04 and 9.19E+04 and 1.02E+05
  Pyridoxamine (C00534) metabolite signal: 1.97E+04 and 7.81E+03 and 6.44E+03
  Thioredoxin disulfide (C00343) metabolite signal: 0.00E+00 and 8.04E+04 and 2.51E+04
[3]
  1-4-beta-D-Xylan (metabolite signal): 2.44E+04 and 1.72E+05 and 1.77E+05
  2-Hydroxyglutarate/Citramalate (C02630) metabolite signal: 8.76E+03 and 5.83E+04 and 8.08E+04
  5-6-Dihydrothymine (C00906) metabolite signal: 7.42E+04 and 3.03E+05 and 2.79E+05
  5-10-Methenyltetrahydrofolate (metabolite signal): 1.08E+05 and 1.27E+05 (2×)
  5-Hydroxyisourate (C11821) metabolite signal: 4.60E+06 and 7.03E+06 and 4.57E+06
  5-L-Glutamyl-taurine (metabolite signal): 1.69E+05 and 1.70E+05 and 1.66E+05
  5-Oxoproline (metabolite signal): 7.65E+04 and 8.27E+05 and 8.67E+05
  (S)(+)-Allantoin (C02350) metabolite signal: 1.76E+03 and 8.43E+03 and 0.00E+00
  Allantoate (C00499) metabolite signal: 5.45E+05 and 3.06E+05 and 4.74E+05
  Ascorbate (metabolite signal): 3.17E+02 and 8.49E+04 and 7.10E+04
  CMP-N-acetylneuraminate (metabolite signal): 0.00E+00 and 1.60E+04 and 3.30E+04
  Carnosine (metabolite signal): 1.68E+05 and 2.26E+05 and 1.66E+05
  Citrate (C00158) metabolite signal: 1.56E+03 and 1.77E+04 and 2.42E+04
  Creatine (metabolite signal): 1.60E+08 and 1.66E+08 and 1.57E+08
  Creatinine (metabolite signal): 2.21E+06 and 2.25E+06 and 2.28E+06
  Cys-Gly (metabolite signal): 7.06E+05 and 5.27E+05 and 4.56E+05
  D-Glucosamine (metabolite signal): 2.84E+05 and 2.82E+05 and 2.01E+05
  D-Glucose (C00031) metabolite signal: 3.39E+04 and 4.32E+06 and 3.64E+06
  D-Ribose (C00121) metabolite signal: 1.37E+04 and 1.43E+05 and 1.11E+05
  Dehydroascorbate (metabolite signal): 0.00E+00 and 3.73E+04 and 1.82E+04
  Dihydrofolate (metabolite signal): 1.85E+06 and 9.70E+05 and 1.18E+06
  Dimethylglycine (metabolite signal): 7.46E+05 and 8.20E+05 and 5.98E+05
  Diphosphate (C00013) metabolite signal: 0.00E+00 and 2.99E+04 and 2.16E+04
  Fumarate (C00122) metabolite signal: 3.34E+03 and 7.81E+04 and 1.06E+05
  Glutathione (C00051) metabolite signal: 4.14E+07 and 3.33E+07 and 3.37E+07
  Glutathione disulfide (metabolite signal): 0.00E+00 and 1.62E+05 and 3.64E+05
  Hypoxanthine (C00262) metabolite signal: 7.62E+03 and 4.26E+03 and 3.54E+03
  IMP (C00130) metabolite signal: 1.27E+04 and 8.26E+04 and 5.76E+04
  Inosine (C00294) metabolite signal: 1.21E+03 and 4.59E+04 and 5.50E+04
  L-Citrulline (metabolite signal): 2.43E+06 and 3.35E+06 and 2.92E+06
  L-Homoserine (metabolite signal): 1.60E+04 and 2.75E+05 and 2.50E+05
  Lactate (C01432) metabolite signal: 9.68E+05 and 1.69E+07 and 1.76E+07
  Malate (C00149) metabolite signal: 3.14E+03 and 1.07E+05 and 1.56E+05
  Mannitol (C00392) metabolite signal: 6.48E+03 and 1.86E+05 and 1.78E+05
  N-Acetylneuraminate (metabolite signal): 0.00E+00 and 1.33E+04 and 1.50E+04
  N-Glycoloyl-neuraminate (metabolite signal): 0.00E+00 and 1.02E+05 and 7.37E+04
  NAD+ (C00003) metabolite signal: 5.65E+04 and 4.00E+04 and 9.30E+04
  Nicotinamide (C00153) metabolite signal: 2.54E+07 and 3.18E+07 and 2.67E+07
  Ornithine (metabolite signal): 1.63E+06 and 1.68E+06 and 1.77E+06
  Oxaloacetate (C00036) metabolite signal: 1.48E+03 and 3.44E+04 and 3.60E+04
  Phosphoserine (metabolite signal): 5.41E+04 and 5.91E+04 and 2.74E+04
  Putrescine (metabolite signal): 3.78E+04 and 4.55E+04 and 4.46E+04
  Pyridoxal (C00250) metabolite signal: 3.76E+04 and 4.39E+04 and 5.36E+04
  Pyruvate (C00022) metabolite signal: 8.68E+04 and 2.04E+06 and 2.17E+06
  S-Glutathionyl-L-cysteine (metabolite signal): 0.00E+00 and 1.18E+05 and 1.30E+05
  Sedoheptulose 1-phosphate (C06222) metabolite signal: 0.00E+00 and 1.66E+04 and 1.92E+04
  Spermidine (metabolite signal): 6.37E+06 and 6.43E+06 and 6.27E+06
  Spermine (metabolite signal): 8.12E+06 and 8.01E+06 and 7.75E+06
  Succinate (C00042) metabolite signal: 1.40E+04 and 6.55E+04 and 4.55E+04
  Thymidine (C00214) metabolite signal: 4.03E+04 and 7.72E+03 and 7.98E+03
  UDP (C00015) metabolite signal: 0.00E+00 and 1.32E+05 and 7.27E+04
  UDP-N-acetyl-D-glucosamine (metabolite signal): 0.00E+00 and 6.00E+03 and 1.01E+04
  UDP-glucose (C00029) metabolite signal: 0.00E+00 and 8.80E+03 and 1.03E+04
  Urate (C00366) metabolite signal: 1.39E+04 and 2.30E+04 and 2.01E+04
  Xanthine (C00385) metabolite signal: 8.29E+04 and 9.81E+04 and 9.24E+04
  alpha-D-Glucosamine 1-phosphate (metabolite signal): 8.54E+05 and 1.67E+06 and 1.26E+06
  alpha-D-Ribose 1-phosphate (C00620) metabolite signal: 0.00E+00 and 2.89E+04 and 3.75E+04
  gamma-Glutamyl-gamma-aminobutyrate (metabolite signal): 5.89E+04 and 6.64E+04 and 6.00E+04
  gamma-L-Glutamyl-D-alanine (metabolite signal): 3.86E+02 and 3.06E+04 and 3.37E+04
  gamma-L-Glutamyl-L-cysteine (metabolite signal): 4.08E+03 and 2.68E+04 and 3.24E+04

— article PMC8482815, “Targeting Host Glycolysis as a Strategy for Antimalarial Development” (Frontiers in Cellular and Infection Microbiology, 2021)
